Results reported in paper PMC8509398, “Proteolytic Cleavage of Bioactive Peptides and Protease-Activated Receptors in Acute and Post-Colitis” (International Journal of Molecular Sciences, 2021).
Residues, ends and D or L forms follow the SMILES beside them.

Tests used:
cathepsin G = molecular target: T1, cathepsin G (Homo sapiens, UniProt P08311); experiment: Cleavage of peptides by purified cathepsin G, MALDI-TOF/TOF; conditions: 25 nM protease, 10 µM peptide
T1 sequence (P08311 21-255): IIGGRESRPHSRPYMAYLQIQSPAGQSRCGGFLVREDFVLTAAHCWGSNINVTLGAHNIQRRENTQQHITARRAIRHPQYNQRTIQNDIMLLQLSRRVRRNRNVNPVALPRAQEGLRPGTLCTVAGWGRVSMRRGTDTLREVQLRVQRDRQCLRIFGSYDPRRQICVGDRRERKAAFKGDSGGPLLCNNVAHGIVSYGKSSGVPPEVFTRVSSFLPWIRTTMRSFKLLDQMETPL
Text: (§1) Trypsin-like proteases included in the experiments are trypsin-1, -2 and -3, tryptase (Enzo LifeSciences), thrombin (Sigma-Aldrich) and cathepsin G (Sigma-Aldrich). Trypsin-1, -2 and -3 were produced as described by Koistinen et al. and Wu et al.. Two elastase-like enzymes, neutrophil elastase (Enzo LifeSciences, Farmingdale, NY, USA) and pancreatic elastase I (Sigma-Aldrich) were included as well. All enzymes were from human origin except for pancreatic elastase from porcine pancreas.
(§2) Reaction mixtures with purified enzymes were compiled in an identical way. […] Substance P was added as the standard peptide except for the reaction mixtures with substance P or bradykinin as the peptide of interest, where angiotensin II (Bachem) was added.
(§3) The TFA mixtures were thawed on ice and desalted using C18 zip-tips (Merck Millipore®, Burlington, MA, USA) with a capacity of 5 µg protein. Retained peptide fragments were eluted directly on the MALDI target plate. Next, 0.5 µL of a 2.5 mg/mL α-cyano-4-hydroxycinnamic acid (Sigma-Aldrich) matrix solution (in 70% acetonitrile, 0.1% TFA) was spotted on top of the sample. A 6-Peptide mixture Kit (AB Sciex, Framingham, MA, USA) containing bradykinin (2–9), angiotensin I, glu1-fibrinopeptide, ACTH (1–17), ACTH (18–39) and ACTH (7–38) was diluted with matrix and spotted on the plate as well.
(§4) MS and MS/MS data for peptide fragment identification were obtained with a MALDI-TOF/TOF instrument (4800 MALDI TOF/TOF™, Applied Biosystems, Waltham, MA, USA) and instrument parameters were set using 4000 Series Explorer™ software. MS spectra were recorded in positive reflector mode in a mass range from 500 to 4000 Da and laser intensity of 4500–4800 Hz. The spectra were calibrated using the calibration mixture mentioned above to a mass tolerance of 0.1 Da. MS/MS spectra were recorded with high-energy collision-induced dissociation and the laser intensity was increased by 10%.
(§5) Identified fragments were confirmed using the MS/MS spectra and mMass 5.5.0 by Martin Strohalm. The relative intensities of the fragments were calculated as the ratio of the intensity of the peak of interest to the intensity of the peak of the standard peptide.

pancreatic elastase I = pancreatic elastase I (Sus scrofa, UniProt P00772); experiment: Cleavage of peptides by purified pancreatic elastase, MALDI-TOF/TOF; conditions: 25 nM protease, 10 µM peptide; for Incubation time at which the first cleavage or decrease of the full-length peptide was observed, pancreatic elastase: 37 °C, time points 2, 5, 10, 30 min
Text: as §1, §2, §3, §4, §5

[1] = Cleavage of peptides by colonic tissue lysates from TNBS-induced colitis rat model, MALDI-TOF/TOF; conditions: 10 µM peptide, 20 µg/mL protein, 37 °C, MALDI-TOF/TOF; for Processing by colonic samples, in words (comparison of control, post-colitis and acute colitis): rat colonic lysates, up to 30 min, n = 8 per group
Protocol: Adult male Sprague–Dawley rats (200–225 g; Charles River, Wilmington, MA, USA) were used in a previously described TNBS-induced acute and post-inflammatory model. Rats were housed at constant room temperature (22 ± 2 °C) and humidity (60%) with two rats per cage, unlimited access to water and food and on a 12 h–12 h light/dark cycle.
After an overnight fast, TNBS colitis was induced using a TNBS-enema (4 mg TNBS; Sigma-Aldrich, 50% ethanol) as described previously. Rats were anesthetized with a mixture of ketamine (35 mg/kg i.p.; Ketalar®, Pfizer, New York City, NY, USA) and xylazine (5 mg/kg i.p.; Rompun®, Bayer, Leverkusen, Germany), and the TNBS-enema or 0.9% saline was administered intrarectally using a flexible catheter (18 G, length 4.5 cm) to colitis and control rats, respectively. Animals were kept in a tail-up position for 1 min and were then allowed to recover in their cages with free access to water and food. […] For the post-colitis group (n = 8), a colonoscopy was performed starting from day 10 and repeated every 4 days until complete mucosal healing was observed. The rats were then sacrificed as well and colonic samples were taken.
Colonic lysates were prepared for studying their effects on cleavage patterns of added peptides with a MALDI-TOF/TOF assay. After sacrifice, a sample of approximately 50 mg of distal colon was taken from each rat. The colonic samples were immediately rinsed with Krebs solution, snap-frozen and stored at −80 °C until further processing. Sample preparation started with crushing the colonic samples on dry ice. Liquid nitrogen was used to prevent the loss of enzymatic activity due to temperature increases and the colon powders were stored at −80 °C for further experiments. […] After centrifugation, the supernatants were collected and used immediately to prepare the reaction mixtures, measure proteolytic activities with fluorogenic substrates and determine the protein content with a Bradford assay.
Colonic lysate was added to a peptide of interest to obtain the reaction mixtures with the colonic samples. Lysate and peptide were diluted so each mixture contained 10 µM peptide of interest and 20 µg/mL protein originating from the colonic tissue. These peptide and protein concentrations were based on research from Loew et al. and O’ Donoghue et al.. The mixtures were incubated at 37 °C for several incubation periods between 5 and 30 min. Afterward, the fragmentation reaction was stopped by adding trifluoroacetic acid (TFA; Alfa Aesar™, ThermoFisher, Waltham, MA, USA) to a final concentration of 2% and standard peptide (substance P, bradykinin or PAR3-based peptide) was added in a final concentration of 10 µM. Standard peptides were selected based on the mass of the peptides of interest. For each sample/peptide combination, a starting point was included as well. Here, TFA was added immediately after mixing the reaction constituents. Samples were stored at −80 °C for further MALDI-TOF/TOF experiments.
as §3
MS and MS/MS data for peptide fragment identification were obtained with a MALDI-TOF/TOF instrument (4800 MALDI TOF/TOF™, Applied Biosystems, Waltham, MA, USA) and instrument parameters were set using 4000 Series Explorer™ software. MS spectra were recorded in positive reflector mode in a mass range from 500 to 4000 Da and laser intensity of 4500–4800 Hz.

[2] = PAR-based peptides, 37 °C, 2, 5, 10 and 30 min
[3] = 37 °C, 2, 5, 10 and 30 min, stopped with 2% TFA

pancreatic elastase I, sequence (P00772 27-266): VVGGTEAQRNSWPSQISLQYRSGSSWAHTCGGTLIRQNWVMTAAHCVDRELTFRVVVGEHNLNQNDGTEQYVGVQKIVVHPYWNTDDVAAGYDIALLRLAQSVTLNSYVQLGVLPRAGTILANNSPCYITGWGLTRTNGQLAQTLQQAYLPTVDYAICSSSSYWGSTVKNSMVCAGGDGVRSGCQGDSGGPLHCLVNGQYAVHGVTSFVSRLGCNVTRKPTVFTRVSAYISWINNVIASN

Incubation time at which the first cleavage or decrease of the full-length peptide was observed, cathepsin G (cathepsin G; 37 °C, time points 2, 5, 10, 30 min)	TL disarming (D), Cathepsin G (cathepsin G; [2])	TL unmasking (U), Cathepsin G (cathepsin G; [2])	TL disarming (D), Pancreatic Elastase (pancreatic elastase I; [2])	TL unmasking (U), Pancreatic Elastase (pancreatic elastase I; [2])	Number of colonic samples in which the TL-sequence unmasking cleavage was observed, acute colitis ([1]; acute colitis lysates, n = 8, PAR1-based after 30 min)	Number of colonic samples in which the TL-sequence unmasking cleavage was observed, control ([1]; control lysates, n = 8, PAR1-based after 30 min)	Number of colonic samples in which the TL-sequence unmasking cleavage was observed, post-colitis ([1]; post-colitis lysates, n = 8, PAR1-based after 30 min)	SMILES	Incubation time at which the first cleavage or decrease of the full-length peptide was observed, pancreatic elastase (pancreatic elastase I)	Processing by colonic samples, in words (comparison of control, post-colitis and acute colitis) [1]	Efficiency of the first cleavage in the peptide, Cathepsin G (cathepsin G; [3])	Efficiency of the first cleavage in the peptide, Pancreatic Elastase (pancreatic elastase I; [3])
> 30 min	−	−	−	−	four out of eight	two out of eight	three out of eight	CC[C@H](C)[C@H](NC(=O)[C@H](CC(C)C)NC(=O)[C@H](CO)NC(=O)[C@H](CCCNC(=N)N)NC(=O)CNC(=O)[C@H](CCCCN)NC(=O)[C@H](CO)NC(=O)[C@H](CO)NC(=O)[C@H](CCCNC(=N)N)NC(=O)[C@H](CC(N)=O)NC(=O)[C@@H](NC(=O)CNC(=O)[C@H](CCC(N)=O)NC(=O)[C@@H](NC(=O)[C@@H](N)[C@@H](C)O)[C@@H](C)CC)[C@@H](C)O)C(=O)NCC(=O)N[C@@H](CCCCN)C(=O)N[C@H](C(=O)N[C@@H](CC(=O)O)C(=O)NCC(=O)N[C@H](C(=O)N[C@@H](CO)C(=O)N[C@@H](Cc1c[nH]cn1)C(=O)N[C@H](C(N)=O)C(C)C)[C@@H](C)O)C(C)C [PAR2-based] (H-TIQGTNRSSKGRSLIGKVDGTSHV-NH2)	> 30 min	no differences		
								CC[C@H](C)[C@H](NC(=O)[C@H](CO)NC(=O)[C@H](CC(N)=O)NC(=O)[C@H](CC(C)C)NC(=O)[C@H](Cc1ccc(O)cc1)NC(=O)[C@H](CCCCN)NC(=O)[C@H](CCCCN)NC(=O)[C@@H](NC(=O)[C@H](C)NC(=O)[C@H](CCSC)NC(=O)[C@H](CCC(N)=O)NC(=O)[C@H](CCCCN)NC(=O)[C@H](CCCN=C(N)N)NC(=O)[C@H](CC(C)C)NC(=O)[C@H](CCCN=C(N)N)NC(=O)[C@@H](NC(=O)[C@H](Cc1ccc(O)cc1)NC(=O)[C@H](CC(N)=O)NC(=O)[C@H](CC(=O)O)NC(=O)[C@@H](NC(=O)[C@H](Cc1ccccc1)NC(=O)[C@@H](NC(=O)[C@H](C)NC(=O)[C@H](CC(=O)O)NC(=O)[C@H](CO)NC(=O)[C@@H](N)Cc1c[nH]cn1)C(C)C)[C@@H](C)O)[C@@H](C)O)C(C)C)C(=O)N[C@@H](CC(C)C)C(=O)N[C@@H](CC(N)=O)C(N)=O [VIP, Vasoactive intestinal peptide]	2 min	no differences	+++ (ultrafast processing within 2 min)	+++ (ultrafast processing within 2 min)
